Assays:
[1] = tested on: planktonic and biofilm-associated Listeria monocytogenes and Salmonella typhimurium; conditions: combined with streptomycin; cited from earlier work
[2] = tested on: biofilms of K. pneumoniae; conditions: cited from earlier work
[3] = tested on: Pseudomonas aeruginosa, Staphylococcus aureus and Candida albicans; experiment: Antimicrobial efficacy of liposome-encapsulated silver and tea tree oil; assay type: cell-based; conditions: singly and in combination, in a controlled release liposomal carrier system
From the text: The aspects, advantages and/or other features of example embodiments of the present disclosure will become apparent to those skilled in the art, in view of the present detailed description. It should be apparent to those skilled in the art that the described embodiments of the present disclosure provided herein are merely exemplary and illustrative and not limiting. Numerous embodiments of modifications thereof are contemplated as falling within the scope of the present disclosure and equivalents thereto. Unless otherwise noted, technical terms are used according to conventional usage. Any publications mentioned in this specification are indicative of the level of those skilled in the art to which the invention pertains and are incorporated by reference in their entirety. […]

Molecule | interaction with streptomycin [1] | also measured
COc1ccc2cc3[n+](cc2c1OC)CCc1cc2c(cc1-3)OCO2 [berberine] | synergistic effect | –
O=CC=Cc1ccccc1 [cinnamaldehyde] | synergistic effect | –
O=C(O)c1cn(C2CC2)c2cc(N3CCNCC3)c(F)cc2c1=O [ciprofloxacin] | – | inhibition/eradication of biofilms [2]: inhibit/eradicate biofilms
C=CCc1ccc(O)c(OC)c1 [eugenol] | synergistic effect | –
Cc1ccc(C(C)C)c(O)c1 [thymol] | synergistic effect | –
silver | – | antimicrobial efficacy and effective concentration required [3]: can improve their antimicrobial efficacy as well as reduce the effective concentration required
